Columns and labels:
[1] = Effect on parathyroid hormone in overnight fasted Sprague-Dawley rat assessed as reduction in plasma PTH level at 10 mg/kg, po measured after 6 hrs of post treatment by sandwich ELISA analysis (reference value: 33%); format: functional; design: scale not given: the % may be the effect or the level left
[2] = AUClast in Sprague-Dawley rat at 1 mg/kg, iv measured upto 24 hrs by LC-MS/MS analysis; format: ADME, organism-based; design: dose 1 mg/kg, time < 24 hrs, route iv; conditions: in vivo
[3] = Drug excretion in rat assessed as drug recovery in urine at 10 mg/kg, po; format: ADME, organism-based; conditions: read-out: Drug recovery
[4] = AUC(0 to t) in rat at 25 mg/kg per day, po via gavage administered for 13 weeks; format: ADME, organism-based; design: dose 25 mg/kg, time 13 weeks, route po; conditions: in vivo
[5] = Tmax in Sprague-Dawley rat at 30 mg/kg; format: ADME, organism-based; conditions: in vivo
Rattus norvegicus [6] = experiment: Acute effect on parathyroid hormone in overnight fasted adenine diet-induced chronic kidney disease Wistar rat model assessed as reduction in plasma PTH level at 3 mg/kg, po measured after 1 hrs of post treatment by sandwich ELISA analysis; format: functional; design: scale not given: the % may be the effect or the level left
[7] = Effect on parathyroid hormone in overnight fasted Sprague-Dawley rat assessed as reduction in plasma PTH level at 3 mg/kg, po measured after 2 hrs of post treatment by sandwich ELISA analysis; format: functional; design: scale not given: the % may be the effect or the level left
Rattus norvegicus [8] = experiment: Acute effect on parathyroid hormone in overnight fasted adenine diet-induced chronic kidney disease Wistar rat model plasma assessed as reduction in plasma PTH level at 1 mg/kg, po measured after 4 hrs of post treatment by sandwich ELISA analysis; format: functional; design: scale not given: the % may be the effect or the level left
[9] = AUClast in Sprague-Dawley rat at 10 mg/kg, po administered as solution measured upto 24 hrs by LC-MS/MS analysis; format: ADME, organism-based; design: dose 10 mg/kg, time < 24 hrs, route po; conditions: in vivo
[10] = Cmax in Sprague-Dawley rat at 10 mg/kg; format: ADME, organism-based; design: dose 10 mg/kg; conditions: in vivo
[11] = Plasma clearance in Beagle dog at 1 mg/kg, iv measured upto 24 hrs by LC/MS-MS analysis; format: ADME, organism-based, Canis lupus familiaris
[12] = Volume of distribution at steady state in cynomolgus monkey at 1 mg/kg, iv measured upto 24 hrs by LC/MS-MS analysis; format: ADME, organism-based, Macaca fascicularis; conditions: in vivo, read-out: Vdss
Rattus norvegicus [13] = experiment: Acute effect on parathyroid hormone in overnight fasted adenine diet-induced chronic kidney disease Wistar rat model assessed as reduction in plasma PTH level at 10 mg/kg, po measured after 4 hrs of post treatment by sandwich ELISA analysis; format: functional; design: scale not given: the % may be the effect or the level left
Rattus norvegicus [14] = experiment: Chronic effect on parathyroid hormone in overnight fasted adenine diet-induced chronic kidney disease Wistar rat model plasma assessed as reduction in plasma PTH level at 1 mg/kg, po qd measured after 27 days of post treatment by sandwich ELISA analysis; format: functional; design: scale not given: the % may be the effect or the level left; conditions: time 27 day
[15] = Chemical stability of the compound in 0.1N HCL measured after 0.5 to 4 hrs; format: physicochemical; conditions: buffer; time 0.5-4 hrs
[16] = Effect on parathyroid hormone in overnight fasted Sprague-Dawley rat assessed as reduction in plasma PTH level at 3 mg/kg, po measured after 0.5 hrs of post treatment by sandwich ELISA analysis; format: functional; design: scale not given: the % may be the effect or the level left
[17] = Tmax in Sprague-Dawley rat at 10 mg/kg, po administered as solution measured upto 24 hrs by LC-MS/MS analysis; format: ADME, organism-based; conditions: in vivo
[18] = Chemical stability of the compound in SGF measured after 0.5 to 4 hrs; format: physicochemical; conditions: simulated gi fluid; time 0.5-4 hrs
[19] = Clearance in Sprague-Dawley rat at 1 mg/kg, iv measured upto 24 hrs by LC-MS/MS analysis; format: ADME, organism-based; conditions: in vivo
[20] = Toxicity in rat assessed as maximum tolerated dose; conditions: in vivo
[21] = Metabolic stability in mouse liver cytosol measured upto 60 mins by LC-MS/MS method; format: ADME, subcellular; conditions: read-out: Stability
Rattus norvegicus [22] = experiment: Subchronic effect on parathyroid hormone in overnight fasted adenine diet-induced chronic kidney disease Wistar rat model plasma assessed as reduction in plasma PTH level at 0.3 mg/kg, po qd measured after 27 days of post treatment by sandwich ELISA analysis; format: functional; design: scale not given: the % may be the effect or the level left; conditions: time 27 day
[23] = Effect on parathyroid hormone in overnight fasted Sprague-Dawley rat assessed as reduction in plasma PTH level at 10 mg/kg, po measured after 0.5 hrs of post treatment by sandwich ELISA analysis; format: functional; design: scale not given: the % may be the effect or the level left
[24] = Metabolic stability in rat liver cytosol measured upto 60 mins by LC-MS/MS method; format: ADME, subcellular; conditions: read-out: Stability
[25] = Ratio of drug concentration in blood to plasma in rat; format: ADME, cell-free
[26] = Plasma clearance in BALB/c mouse at 1 mg/kg, iv measured upto 24 hrs by LC/MS-MS analysis; format: ADME, organism-based
[27] = Effect on parathyroid hormone in overnight fasted Sprague-Dawley rat assessed as reduction in plasma PTH level at 10 mg/kg, po measured after 4 hrs of post treatment by sandwich ELISA analysis (reference value: 18%); format: functional; design: scale not given: the % may be the effect or the level left
[28] = Stability in dog plasma measured up to 4 hrs by LC-MS/MS method; format: ADME, cell-free, Canis lupus familiaris; conditions: read-out: Stability
[29] = Cmax in Sprague-Dawley rat at 300 mg/kg; format: ADME, organism-based; design: dose 300 mg/kg; conditions: in vivo
[30] = Half life in Sprague-Dawley rat at 1 mg/kg, iv measured upto 24 hrs by LC-MS/MS analysis; format: ADME, organism-based; conditions: in vivo
[31] = Tmax in Sprague-Dawley rat at 10 mg/kg, po measured upto 24 hrs by LC/MS-MS analysis; format: ADME, organism-based; conditions: in vivo
CYP1A2 = target: T1, CYP1A2 (Homo sapiens, UniProt P05177); experiment: Inhibition of CYP1A2 in human liver microsomes at 10 uM preincubated for 5 mins followed by NADPH addition by LC-MS/MS analysis relative to control; format: ADME, Microsome
T1 sequence (P05177 whole entry): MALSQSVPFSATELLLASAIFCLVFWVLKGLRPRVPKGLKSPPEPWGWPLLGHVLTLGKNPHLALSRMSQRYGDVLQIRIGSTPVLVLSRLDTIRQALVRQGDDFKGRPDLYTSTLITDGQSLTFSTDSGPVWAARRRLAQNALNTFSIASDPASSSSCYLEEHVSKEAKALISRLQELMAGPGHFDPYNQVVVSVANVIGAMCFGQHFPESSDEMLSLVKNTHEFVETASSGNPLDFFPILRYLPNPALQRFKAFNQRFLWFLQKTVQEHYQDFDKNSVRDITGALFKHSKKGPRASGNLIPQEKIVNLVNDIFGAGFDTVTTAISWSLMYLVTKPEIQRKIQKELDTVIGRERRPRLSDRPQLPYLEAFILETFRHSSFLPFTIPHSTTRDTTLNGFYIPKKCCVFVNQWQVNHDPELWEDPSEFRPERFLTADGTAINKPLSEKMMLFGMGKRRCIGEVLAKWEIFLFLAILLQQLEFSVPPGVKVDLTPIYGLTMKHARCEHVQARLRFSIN

[32] = Toxicity in monkey assessed as NOAEL; design: species or system Macaca mulatta; conditions: rhesus monkey, in vivo
[33] = Kinetic solubility of compound upto 500 uM at pH 4 measured after 16 hrs under shaking condition by UV-visible method; format: physicochemical; conditions: buffer, read-out: Kinetic_solubility
[34] = Toxicity in rat assessed as NOAEL; conditions: in vivo
Rattus norvegicus [35] = experiment: Acute effect on parathyroid hormone in overnight fasted adenine diet-induced chronic kidney disease Wistar rat model assessed as reduction in plasma PTH level at 1 mg/kg, po measured after 2 hrs of post treatment by sandwich ELISA analysis; format: functional; design: scale not given: the % may be the effect or the level left
[36] = AUC in Sprague-Dawley rat at 10 mg/kg, po measured upto 24 hrs by LC/MS-MS analysis; format: ADME, organism-based; design: time < 24 hrs, dose 10 mg/kg, route po; conditions: in vivo

`Cc1ccc([C@@H]2C[C@H](CN[C@H](C)c3cccc4ccccc34)Oc3ccccc32)cc1C(=O)O.Cl` gave an Activity [1] of 45%, an AUC(0-t) at 24 h [2] of 7 µM·h and a dose excreted [3] of under 1%. It also gave an AUC(0-t) at 2184 h [4] of 98900 ng·h/mL, a Tmax [5] of 30 min and an Activity (Rattus norvegicus [6]) of 96%. The Activity [7] was 100%, the Activity (Rattus norvegicus [8]) was 84% and the AUC(0-t) at 24 h [9] was 71 µM·h. The Cmax [10] was 4 µM, the clearance [11] was 2 mL/min/kg and the Vd [12] was 20 L/kg. For the same compound, the Activity (Rattus norvegicus [13]) was 97%, the Activity (Rattus norvegicus [14]) was 65% and the Stability [15] was “Stable”. For the same compound, the Activity [16] was 100%, the Tmax [17] was 36 min and the Stability [18] was “Stable”. It also gave a clearance [19] of 4 mL/min/kg, an MTD [20] of 1000 mg/kg and a remaining at 1 h [21] of over 80%. For the same compound, the Activity (Rattus norvegicus [22]) was 73%, the Activity [23] was 100% and the remaining at 1 h [24] was over 80%. The blood plasma ratio [25] was 0.64, the clearance [26] was 2.6 mL/min/kg and the Activity [27] was 88%. For the same compound, the remaining at 4 h [28] was over 80%, the Cmax [29] was 72 µM and the half-life [30] was 240 min. For the same compound, the Tmax [31] was 36 min, the inhibition at 10 µM (CYP1A2) was 0% and the NOAEL [32] was 50 mg/kg/day. The solubility kinetic at 16 h, 500 µM [33] was over 300 µM, the NOAEL [34] was 25 mg/kg/day and the Activity (Rattus norvegicus [35]) was 95%. The AUC at 24 h [36] was 71 µM·h.

From ChEMBL document CHEMBL5346964, “Discovery of LNP1892: A Precision Calcimimetic for the Treatment of Secondary Hyperparathyroidism” (J Med Chem, 2023)
